As a reminder, the IC50 is the concentration that inhibits the measured activity by half. As usually defined, the Ki is a dissociation constant, usually derived from enzyme kinetics or from competition with a known ligand. A higher Ki goes with lower affinity.

The experiment deals with T1, Tyrosine-protein phosphatase non-receptor type 1 (Homo sapiens, UniProt P18031).
T1 sequence (P18031 whole entry): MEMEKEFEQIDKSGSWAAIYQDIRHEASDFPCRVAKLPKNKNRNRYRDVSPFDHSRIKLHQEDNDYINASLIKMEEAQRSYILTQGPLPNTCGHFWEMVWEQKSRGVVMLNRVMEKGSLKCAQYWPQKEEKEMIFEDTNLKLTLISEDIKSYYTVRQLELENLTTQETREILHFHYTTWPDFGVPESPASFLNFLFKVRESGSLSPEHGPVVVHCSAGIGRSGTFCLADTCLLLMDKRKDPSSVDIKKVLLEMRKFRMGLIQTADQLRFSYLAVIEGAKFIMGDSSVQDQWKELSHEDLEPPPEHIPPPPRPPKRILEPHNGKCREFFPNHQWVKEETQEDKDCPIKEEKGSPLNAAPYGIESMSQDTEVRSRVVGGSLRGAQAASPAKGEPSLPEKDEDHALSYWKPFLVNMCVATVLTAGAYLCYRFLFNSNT
The experiment is described as follows: In Vitro Assay. The note with it: pH 7. On the procedure: The effect of the test compounds on PTP1B was studied by preincubating the test compound with enzyme in the reaction system for 10 min and determining the residual enzyme activity according to the Goldstein method.
For `COc1ccc(C2CC(c3ccc4c(c3OC)C=CC(C)(C)O4)=NO2)cc1` (stereo not given) [PTP1B Inhibitor, 6], it took 91 µM to reach half-maximal inhibition (IC50) and the Ki came out at 56 µM.
On the same counts, the results for `COc1cc(C=O)ccc1C1=NOC(c2ccccc2)C1` (stereo not given) [PTP1B Inhibitor, 10] are 69 µM and 48 µM.
On the same counts, the results for `COc1cc(C=O)ccc1C1=NOC(c2ccncc2)C1` (stereo not given) [PTP1B Inhibitor, 13] are 275 µM and 150 µM.
Turning to `COc1ccc(C2CC(c3ccc(C=O)cc3OC)=NO2)cc1` (stereo not given) [PTP1B Inhibitor, 11], the IC50 was determined as 67 µM and the Ki turned out to be 48 µM.
In the case of `COc1c(C2=NOC(c3ccccc3)C2)ccc2c1C=CC(C)(C)O2` (stereo not given) [PTP1B Inhibitor, 5], the IC50 is 70 µM and the Ki was determined as 30 µM.
Take `COc1cc(C=O)ccc1C1=NOC(n2ccnc2)C1` (stereo not given) [PTP1B Inhibitor, 14]: half-maximal inhibition (IC50) required 88 µM and the Ki came to 63 µM.
With `CC(=O)Oc1ccc(C2=NOC(c3ccccc3)C2)c(OC(C)=O)c1` (stereo not given) [PTP1B Inhibitor, 19], inhibition was half-maximal at 62.7 µM (IC50) and the affinity, expressed as Ki, was 25 µM.
On the same counts, the results for `COc1cc(C=O)ccc1C1=NOC(c2ccccn2)C1` (stereo not given) [PTP1B Inhibitor, 12] are 485 µM and 170 µM.
In the case of `COc1c(C2=NOC(c3ccccn3)C2)ccc2c1C=CC(C)(C)O2` (stereo not given) [PTP1B Inhibitor, 7], the midpoint of inhibition, the IC50, lay at 87 µM and the Ki worked out at 34 µM.
Compound `COC(=O)C1C(c2ccc(C=O)cc2OC)=NOC1c1ccccc1` (stereo not given) [PTP1B Inhibitor, 15] displayed an IC50 of 165 µM and a Ki of 135 µM.
